Reference: the supplement of paper PMC9780213

Assays:
Conditions in all cases: treatment time: 24 h
U2OS-LMNB1-TUBA1B-ACTB = test: cell count relative to DMSO control (panel C1, DRAQ5/ER stain) (fraction of control); higher = more cells (less toxicity)
Protocol: (§1)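 U2OS-derived cells in 384-well plates were treated for 24 h with a 7-point 2-fold dilution series (top dose 20 µM for most compounds; final max DMSO 1%), then fixed, stained in four marker panels and imaged on a Cellomics ArrayScan. Cell count per treatment (three replicate plates merged) is given as a fraction of DMSO control. Panel A used parental U2OS, panel B U2OS-mOrange2-Peroxisome, panel C1 U2OS-LMNB1-TUBA1B-ACTB (DRAQ5 nuclei).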

U2OS-mOrange2-Peroxisome = test: cell count relative to DMSO control (panel B, lysosome/peroxisome/lipid stain) (fraction of control); higher = more cells (less toxicity)
Protocol: as §1

U2OS = test: cell count relative to DMSO control (panel A, nuclei/RNA/PMG/mitochondria stain) (fraction of control); higher = more cells (less toxicity)
Protocol: as §1

| Compound | cell count (U2OS-LMNB1-TUBA1B-ACTB; 0.3125 µM) | cell count (U2OS-LMNB1-TUBA1B-ACTB; 0.625 µM) | cell count (U2OS-LMNB1-TUBA1B-ACTB; 1.25 µM) | cell count (U2OS-LMNB1-TUBA1B-ACTB; 2.5 µM) | cell count (U2OS-LMNB1-TUBA1B-ACTB; 5 µM) | cell count (U2OS-LMNB1-TUBA1B-ACTB; 10 µM) | cell count (U2OS-LMNB1-TUBA1B-ACTB; 20 µM) | cell count (U2OS-mOrange2-Peroxisome; 0.3125 µM) | cell count (U2OS-mOrange2-Peroxisome; 0.625 µM) | cell count (U2OS-mOrange2-Peroxisome; 1.25 µM) | cell count (U2OS-mOrange2-Peroxisome; 2.5 µM) | cell count (U2OS-mOrange2-Peroxisome; 5 µM) | cell count (U2OS-mOrange2-Peroxisome; 10 µM) | cell count (U2OS-mOrange2-Peroxisome; 20 µM) | cell count (U2OS; 0.3125 µM) | cell count (U2OS; 0.625 µM) | cell count (U2OS; 1.25 µM) | cell count (U2OS; 2.5 µM) | cell count (U2OS; 5 µM) | cell count (U2OS; 10 µM) | cell count (U2OS; 20 µM) | cell count (U2OS-LMNB1-TUBA1B-ACTB; 0.15625 µM) | cell count (U2OS-mOrange2-Peroxisome; 0.15625 µM) | cell count (U2OS; 0.15625 µM) |
| --- | --- | --- | --- | --- | --- | --- | --- | --- | --- | --- | --- | --- | --- | --- | --- | --- | --- | --- | --- | --- | --- | --- | --- | --- |
| O=C(Oc1cc(S(=O)(=O)c2ccccc2)ccc1[N+](=O)[O-])c1ccc(Cl)cc1 | 1.05 | 1.06 | 0.969 | 0.953 | 0.983 | 1.13 | 0.989 | 0.726 | 0.838 | 0.873 | 1.02 | 1.08 | 1.26 | 0.846 | 1.05 | 1.08 | 1.11 | 1.06 | 0.997 | 0.944 | 0.966 |  |  |  |
| Cc1ccc(S(=O)(=O)c2ccc([N+](=O)[O-])o2)cc1 | 1.1 | 1.02 | 1.12 | 1.1 | 1.02 | 0.982 |  | 0.934 | 0.938 | 0.864 | 1.16 | 0.964 | 0.837 |  | 0.974 | 1.04 | 1.05 | 1.01 | 0.917 | 0.886 |  | 1.01 | 0.927 | 1.02 |
| Nc1c2ccccc2nc2ccccc12 [9-aminoacridine] | 1.11 | 1.05 | 1.12 | 0.826 | 0.239 | 0.0589 | 0.0515 | 1.12 | 0.733 | 0.6 | 0.346 | 0.104 | 0.0699 | 0.0813 | 1.08 | 1.12 | 1 | 0.751 | 0.383 | 0.226 | 0.254 |  |  |  |
| Cc1[nH]c2ccccc2c1CCNC(=O)c1cccs1 [CK-636] | 1.16 | 1.06 | 1.09 | 1.04 | 0.908 | 0.887 | 0.858 | 0.793 | 0.764 | 0.737 | 0.756 | 0.783 | 1.04 | 0.977 | 1.06 | 0.971 | 1.01 | 1.01 | 0.977 | 0.961 | 0.865 |  |  |  |
| O=C(O)CCCCC(CCSCc1ccccc1)SCc1ccccc1 (configuration not stated) [CPI-613] | 1.36 | 1.4 | 1.03 | 1.06 | 1.15 | 1.08 | 1.14 | 0.907 | 1.1 | 0.897 | 1.1 | 0.851 | 0.902 | 0.849 | 1.01 | 0.993 | 0.975 | 1.04 | 1.14 | 1.11 | 1.05 |  |  |  |
| OC(CS)C(O)CS (configuration not stated) [DTT] | 0.887 | 0.811 | 0.809 | 0.764 | 0.806 | 0.477 | 0.457 | 0.732 | 0.714 | 0.826 | 0.911 | 0.773 | 0.0574 | 0.0584 | 0.863 | 0.785 | 0.733 | 0.765 | 0.729 | 0.201 | 0.11 |  |  |  |
| N#CC(C#N)=NNc1ccc(OC(F)(F)F)cc1 [FCCP] | 1.11 | 1.13 | 1.01 | 1.05 | 0.894 | 0.666 | 0.651 | 0.804 | 0.769 | 0.715 | 0.625 | 0.802 | 0.659 | 0.618 | 0.961 | 0.945 | 0.883 | 0.867 | 0.897 | 0.622 | 0.704 |  |  |  |
